This note sets out measurements from patent publication US7799775B2, “Pyrimidine derivatives” (ASKA Pharmaceutical Co., Ltd., priority 2004, dated 2010).

For one test, the target named is T1, human 5-HT3 receptor (Homo sapiens, UniProt P46098).
T1 construct: purchased BIOLINKS K.K; host or cells: HEK-293 cells (membrane preparation)
T1 sequence (P46098 24-478): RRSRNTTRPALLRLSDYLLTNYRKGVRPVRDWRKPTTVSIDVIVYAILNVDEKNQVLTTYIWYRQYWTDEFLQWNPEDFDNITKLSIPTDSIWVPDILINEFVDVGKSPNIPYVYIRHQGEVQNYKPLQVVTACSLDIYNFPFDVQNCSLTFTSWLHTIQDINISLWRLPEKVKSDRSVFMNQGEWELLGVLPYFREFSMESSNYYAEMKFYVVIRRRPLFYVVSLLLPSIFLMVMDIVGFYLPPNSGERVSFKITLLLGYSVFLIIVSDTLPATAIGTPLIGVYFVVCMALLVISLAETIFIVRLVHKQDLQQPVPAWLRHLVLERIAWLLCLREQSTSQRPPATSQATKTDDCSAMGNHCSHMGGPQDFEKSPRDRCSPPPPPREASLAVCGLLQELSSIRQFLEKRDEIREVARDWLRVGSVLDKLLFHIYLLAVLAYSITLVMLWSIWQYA
In words: Measurement of affinity to human 5-HT3 receptor (in vitro), [3H]BRL-43694 binding. Particulars: test compound 100 nmols/L, [3H]BRL-43694 0.5 nmols/L, HEK-293 cell membrane expressing human 5-HT3 receptor; for inhibition at 0.1 µM: read-out: Percent Inhibition (%) on Each Receptor's Binding at 10^−7M, 5-HT3. How it is done: (2) Measurement of Affinity of Each Test Compound to Human 5-HT3 Receptor (in Vitro):
HEK-293 cell membrane sample in which human 5-HT3 receptor was expressed (purchased from BIOLINKS K.K.) 0.05 mL (about 50 microassay) was added to 24.95 mL of incubation buffer solution B (an aqueous solution of a mixture of 50 mmols/L of Tris-hydrochloric acid, 5 mmols/L of magnesium chloride and 1 mmol/L of EDTA, whose pH was adjusted to 7.5 at 25° C. with 1N-aqueous sodium hydroxide solution) and homogenized, to provide a membrane sample suspension B. Separately, each test compound was made into 270 μmols/L of DMSO solution and diluted to a prescribed concentration with the incubation buffer solution B to provide a compound solution.
A piece of polypropylene tube was charged with 20 μL of [^3H]BRL-43694 (purchased from Daiichi Pure Chemicals Co., Ltd.) (The concentration of [^3H]BRL-43694 had been advancedly adjusted to render its concentration in the reaction mixture to 0.5 nmols/L.) and 20 μL of one of the compound solutions. Further 500 μL of the membrane sample suspension B was added into the tube, followed by 60 minutes' incubation at 25° C. The reaction was terminated by rapid filtration of the reaction mixture through GF/B filter which had been advancedly immersed in a solution formed by adding to the incubation buffer solution B polyethyleneimine to a concentration of 0.5%, using Brandel cell harvester. Then the filter was washed with about 5 mL of 50 mmols/L of Tris-hydrochloric acid which had been cooled to 4° C. The filter was once again washed after similar operation.
Residual radioactivity on the filter was measured with liquid scintillation counter (ALOKA CO., LTD. LSC-5100). Percent inhibition (%) of each test compound to binding of [^3H]BRL-43694 to 5-HT3 receptor at a concentration of 0.5 nmols/L, i.e., affinity of each test compound to 5-HT3 receptor, can be calculated according to the following expression. The ratio of non-specific binding was calculated by measuring the radioactivity in case of using tropisetron: (ICS 205-930) at a concentration of 10 μmols/L, with which value the measured value of each test compound was compensated.
(§1) Affinity of each test compound to 5-HT1A receptor and 5-HT3 receptor at a concentration of 100 nmols/L were as shown in the following Tables A-1 and A-2. BRL-43694 and tropisetron (ICS 205-930), which were used in measuring affinity of those compounds to 5-HT3 receptor, have the following structures: […]

The target in another test is T2, human 5-HT1A receptor (Homo sapiens, UniProt P08908).
T2 construct: purchased Packard Bioscience; host or cells: CHO cells (membrane preparation)
T2 sequence (P08908 1-422): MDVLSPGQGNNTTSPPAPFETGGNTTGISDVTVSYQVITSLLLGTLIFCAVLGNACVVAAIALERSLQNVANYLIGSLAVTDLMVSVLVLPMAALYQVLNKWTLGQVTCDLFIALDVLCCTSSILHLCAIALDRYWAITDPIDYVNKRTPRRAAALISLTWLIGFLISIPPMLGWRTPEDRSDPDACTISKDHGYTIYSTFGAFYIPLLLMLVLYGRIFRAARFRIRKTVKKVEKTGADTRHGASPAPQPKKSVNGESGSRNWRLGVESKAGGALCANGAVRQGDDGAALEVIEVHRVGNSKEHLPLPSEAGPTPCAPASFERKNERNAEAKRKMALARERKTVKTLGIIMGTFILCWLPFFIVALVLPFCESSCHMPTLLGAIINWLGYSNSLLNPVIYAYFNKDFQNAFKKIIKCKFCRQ
Put plainly: Affinity measurement of the compounds to human 5-HT1A receptor (in vitro), [3H]8-OH-DPAT binding. Particulars: test compound 100 nmols/L, [3H]8-OH-DPAT 0.25 nmols/L, CHO cell membrane expressing human 5-HT1A receptor; for inhibition at 0.1 µM: read-out: Percent Inhibition (%) on Each Receptor's Binding at 10^−7M, 5-HT1A. How it is done: (1) Affinity Measurement of the Compounds to Human 5-HT1A Receptor (in Vitro)
CHO cell membrane sample in which human 5-HT1A receptor was expressed (purchased from Packard Bioscience) 0.25 mL (about 50 units) was added to 24.75 mL of incubation buffer solution A (an aqueous solution of a mixture of 50 mmols/L of Tris-hydrochloric acid, 10 mmols/L of magnesium sulfate, 0.5 mmols/L of EDTA and 0.1% ascorbic acid, whose pH was adjusted to 7.4 at 27° C. with 1N-aqueous sodium hydroxide solution), and labeled as membrane sample suspension A. Separately, each test compound was made into 270 μmols/L DMSO solution and diluted to a prescribed concentration with the incubation buffer solution A, to provide a compound solution.
A piece of polypropylene tube was charged with 20 μL of [^3H]8-OH-DPAT (8-hydroxy-2-(di-n-propylamino)tetralin; purchased from Daiichi Pure Chemicals Co., Ltd.) (The concentration of the [^3H]8-OH-DPAT had been advancedly adjusted to render its concentration in the reaction mixture to 0.25 nmols/L) and 20 μL of one of the compound solutions. Further 500 μL of the membrane sample suspension A was added into the tube, followed by 60 minutes' incubation at 27° C. The reaction was terminated by rapid filtration of the reaction mixture through GF/C filter which had been advancedly immersed in a solution formed by adding to the incubation buffer solution A polyethyleneimine to a concentration of 0.3%, using Brandel cell harvester. Then the filter was washed with about 5 mL of 50 mmols/L of Tris-hydrochloric acid which had been cooled to 4° C. The filter was once again washed after similar operation.
Residual radioactivity on the filter was measured with liquid scintillation counter (Aloka Co., LSC-5100). Percent inhibition (%) of each test compound to binding of [^3H]8-OH-DPAT to 5-HT1A receptor at a concentration of 0.25 nmols/L, i.e., affinity of each test compound to 5-HT1A receptor, can be calculated according to the following expression. The ratio of non-specific binding was calculated by measuring the radioactivity in case of using 8-OH-DPAT at a concentration of 10 μmols/L, with which value the measured value of each test compound was compensated.
as §1

By inhibition is commonly meant the relative decrease from the control value, in per cent. As for `Cn1c(CCCCN2CCN(c3ccc4ccccc4n3)CC2)nc2cccc(Cl)c2c1=O` [Example 7-18, 5-chloro-3-methyl-2-[4-(4-quinolin-2-ylpiperazin-1-yl)butyl]-3H-quinazolin-4-one], the inhibition at 0.1 µM at human 5-HT3 receptor is 68.8%; on human 5-HT1A receptor, 93.1%.

For `O[C@@H]1C[C@H]2CN(c3nccc4occc34)CCN2C1` [Production Example 114, 4-((7R,8aS)-7-hydroxyoctahydropyrrolo[1,2-a]pyrazin-2-yl)furo[3,2-c]-pyridine], the inhibition at 0.1 µM on human 5-HT3 receptor worked out at 91%; on human 5-HT1A receptor, 16.7%.

`c1cc2sccc2c(N2CCN3CCCCC3C2)n1` (stereo not shown) [Production Example 121, 4-octahydropyrido[1,2-a]pyrazin-2-ylthieno[3,2-c]pyridine]: the inhibition at 0.1 µM on human 5-HT3 receptor came out at 85.6%; at human 5-HT1A receptor, 69.3%.

For `CC1CCc2c(sc3nc(SCCCN4CCN(c5ccc6ccccc6n5)CC4)n(N)c(=O)c23)C1` (stereo not shown) [Example 1-31, 3-amino-7-methyl-2-[3-(4-quinolin-2-ylpiperazin-1-yl)propylthio]-5,6,7,8-tetrahydro-3H-benzo[4,5]thieno[2,3-d]pyrimidin-4-one], the inhibition at 0.1 µM on human 5-HT3 receptor was found to be 92.4%; at human 5-HT1A receptor it was 97.9%.

In the case of `Cc1sc2nc(CCCCN3CCN(c4ccc5ccccc5n4)CC3)n(C)c(=O)c2c1C` [Example 7-23, 3,5,6-trimethyl-2-[4-(4-quinolin-2-ylpiperazin-1-yl)butyl]-3H-thieno[2,3-d]pyrimidin-4-one], the inhibition at 0.1 µM at human 5-HT3 receptor stood at 74.8%; on human 5-HT1A receptor, 77%.

In the case of `c1cc2ccoc2c(N2CCNCC2)n1` [Production Example 1, 7-piperazin-1-ylfuro[2,3-c]pyridine], the inhibition at 0.1 µM on human 5-HT3 receptor turned out to be 80.8%; at human 5-HT1A receptor, 86.7%.

With `O[C@@H]1C[C@H]2CN(c3nccc4ccsc34)CCN2C1` [Production Example 112, 7-((7R,8aS)-7-hydroxyoctahydropyrrolo[1,2-a]pyrazin-2-yl)thieno-[2,3-c]pyridine], the inhibition at 0.1 µM worked out at 98.8% on human 5-HT3 receptor and 53.9% on human 5-HT1A receptor.

With `COc1cc2nc(CCCCN3CCN(c4ccc5ccccc5n4)CC3)n(C)c(=O)c2cc1OC` [Example 7-22, 6,7-dimethoxy-3-methyl-2-[4-(4-quinolin-2-ylpiperazin-1-yl)butyl]-3H-quinazolin-4-one], the inhibition at 0.1 µM was 5.3% at human 5-HT3 receptor and 82.4% at human 5-HT1A receptor.

Turning to `CCN1CCN(c2nccc3ccccc23)CC1` [Production Example 37, 1-(4-ethylpiperazin-1-yl)isoquinoline], the inhibition at 0.1 µM was determined as 70.2% on human 5-HT3 receptor and 57.3% at human 5-HT1A receptor.

On to `CC1CCCc2c1nc(CCCCN1CCN(c3ccc4ccccc4n3)CC1)n(N)c2=O` (stereo not shown) [Example 4-36, 3-amino-8-methyl-2-[4-(4-quinolin-2-ylpiperazin-1-yl)butyl]-5,6,7,8-tetrahydro-3H-quinazolin-4-one], for which the results for the inhibition at 0.1 µM at human 5-HT3 receptor and on human 5-HT1A receptor were 87.7% and 90.4%, respectively.

Turning to `c1cc2sccc2c(N2CCN3CCC[C@@H]3C2)n1` [Production Example 109, 4-((8aR)-octahydropyrrolo[1,2-a]pyrazin-2-yl)thieno[3,2-c]pyridine], the inhibition at 0.1 µM turned out to be 92.5% at human 5-HT3 receptor and 75.4% at human 5-HT1A receptor.

Consider `Nn1c(CCCCN2CCN(c3ccc4ccccc4n3)CC2)nc2c(c1=O)CCCCC2` [Example 4-42, 3-amino-2-[4-(4-quinolin-2-ylpiperazin-1-yl)butyl]-5,6,7,8,9-pentahydro-3H-cyclohepta[d]pyrimidin-4-one], for which the inhibition at 0.1 µM at human 5-HT3 receptor turned out to be 58.5%; on human 5-HT1A receptor it was 95.8%.

Take `Cc1cc(N2CCN(CCCSc3nc4sc5c(c4c(=O)n3N)CCCC5)CC2)nc2ccccc12` [Example 1-33]: the “Percent Inhibition (%) on Each Receptor's Binding at 10^−7M, 5-HT3” value at human 5-HT3 receptor amounted to 94.2%. Besides, at human 5-HT1A receptor, the “Percent Inhibition (%) on Each Receptor's Binding at 10^−7M, 5-HT1A” value was found to be 94.0%.

For the compound `CN1CCN(c2nccc3sc(Br)cc23)CC1` [Production Example 10, 2-bromo-4-(methylpiperazin-1-yl)thieno[3,2-c]pyridine], the inhibition at 0.1 µM worked out at 73.8% on human 5-HT3 receptor and 98.5% on human 5-HT1A receptor.

With `CC1CCc2nc(CCCCN3CCN(c4ccc5ccccc5n4)CC3)n(N)c(=O)c2C1` (stereo not shown) [Example 4-60, 3-amino-6-methyl-2-[4-(4-quinolin-2-ylpiperazin-1-yl)butyl]-5,6,7,8-tetrahydro-3H-quinazolin-4-one], the inhibition at 0.1 µM was 91.5% on human 5-HT3 receptor and 96.9% on human 5-HT1A receptor.

In the case of `CCCc1cc(=O)[nH]c(SCCCN2CCN(c3ccc4ccccc4n3)CC2)n1` [Example 2-14, 6-propyl-2-[3-(4-quinolin-2-ylpiperazin-1-yl)propylthio]-3H-pyrimidin-4-one], the inhibition at 0.1 µM at human 5-HT3 receptor is 51.9%; at human 5-HT1A receptor, 57.7%.

`Cn1c(NCCCN2CCN(c3ccc4ccccc4n3)CC2)nc2ccccc2c1=O` [Example 7-30, 3-methyl-2-[3-(4-quinolin-2-ylpiperazin-1-yl)propylamine]-3H-quinazolin-4-one]: the inhibition at 0.1 µM on human 5-HT3 receptor was 92.4%; at human 5-HT1A receptor, 73.5%.
